Reference: PMC5742831, “Inhibitors of Serine Proteases from a Microcystis sp. Bloom Material Collected from Timurim Reservoir, Israel” (Marine Drugs, 2017)
pIC50: −log10 of the molar value.

What was measured:
[1] = target: chymotrypsin (Bos taurus, UniProt P00766); experiment: Protease inhibition assay, chymotrypsin; format: biochemical; details: substrate SGGPNA; Tris buffer pH 7.5; 37 °C; 5 min pre-incubation; kinetic absorbance 405 nm over 30 min; dilutions 0.011 µM to 45.5 µM; 4-parameter logistic fit
Protocol: A sigmoidal curve of the enzyme inhibition versus the concentration of the inhibitor was observed that was fit to the 4-parameters logistic model. Assays were performed in 96-well plate format.
The assay was performed in a Tris buffer (0.6 g TRIS HCl/100 mL H2O, pH 7.5). The enzyme and the substrate Suc-Gly-Gly-phenylalanine-p-nitroanilide (SGGPNA) were dissolved in the buffer at concentrations of 1 mg/mL. To each well were added 100 µL of buffer, 10 µL of enzyme, and 10 µL of sample. The plate was placed in the spectrophotometer at 37 °C. After 5 min, 100 µL of substrate solution was added to each well, and the plate was placed in the spectrophotometer for the kinetic measurement of the absorbance intensity over 30 min at a wavelength of 405 nm.

[2] = HPLC mobile phase 0.1% TFA/MeCN, six degradation products from TFA catalyzed hydrolysis of the glutamine and Ahp residues, confirmed by LC-MS of the crude extract

Q: Which results are given for `CC(C)C[C@H]1C(=O)N(C)[C@@H](Cc2ccc(O)cc2)C(=O)N[C@@H](C(C)C)C(=O)O[C@H](C)[C@H](NC(=O)[C@H](Cc2ccc(O)cc2)NC(=O)[C@@H](O)Cc2ccc(O)cc2)C(=O)N[C@@H](CCC(N)=O)C(=O)N[C@H]2CC[C@@H](O)N1C2=O` [Micropeptin TR1058 (1)]?
A: pIC50 [1]: 5.17; Stability under the isolation conditions [2]: extremely unstable
